Earlier results as cited in patent publication US20100135908A1, “Delivery devices for modulating inflammation” (Searete LLC, a limited liability corporation of the state …, priority 2008, published 2010).

What was measured:
proteasome = settings: cultured breast cancer cells; disulfiram bound to copper
[1] = single agent, 400 mg infused over one hour
[2] = test system: Src family kinases (Src, Lck, Yes, Fyn); settings: at nanomolar concentrations
[3] = mice

CCN(CC)CCCC(C)Nc1ccnc2cc(Cl)ccc12 (centres unmarked) [chloroquine]
inhibition of CpG-induced Src family kinase activation or its dependent cellular responses (Src family kinase): does not inhibit

CCN(CC)C(=S)SSC(=S)N(CC)CC [disulfiram, 1-(diethylthiocarbamoyldisulfanyl)-N,N-diethyl-methanethioamide]
proteasomal activity (proteasome): inhibits proteasomal activity

CCN(CC)CCCC(C)Nc1ccnc2cc(Cl)ccc12.O=P(O)(O)O.O=P(O)(O)O (centres unmarked) [chloroquine phosphate, 7-chloro-4-[[4-(diethylamino)-1-methylbutyl]amino]quinoline phosphate (1:2)]
complications of intravenous infusion [1]: without complication

Cc1nc(Nc2ncc(C(=O)Nc3c(C)cccc3Cl)s2)cc(N2CCN(CCO)CC2)n1.O [dasatinib, N-(2-chloro-6-methylphenyl)-2-[[6-[4-(2-hydroxyethyl)-1-piperazinyl]-2-methyl-4-pyrimidinyl]amino]-5-thiazolecarboxamide, monohydrate]
inhibition of Src family kinases (Src, Lck, Yes, Fyn) [2]: inhibits

Cl.Cl.Nc1ccccc1Oc1ccc2c(N)nsc2c1 [Example M62812, 3-amino-6-(2-aminophenoxy)-1,2-benzisothiazole dihydrochloride]
prevention of lethal septic shock [3]: prevents lethal septic shock
